Experimental data published in patent US20240207396A1 (priority 2021, published 2024).

Legend:
C. albicans = assay type: in vivo; settings: immunocompromised mice; for Survival rate: 7 days after fatal dose of C. albicans by tail vein at week 8; for Survival number after 7 days: fatal dose of C. albicans by tail vein at week 8, 20 mice per group, fluconazole 50 mg/kg d intragastric for 7 days
[1] = test system: Th17 cells (cytokine IL-17F); settings: in words; after immunization vs. blank control group
Description: The effectiveness of the vaccine was studied by using an immunocompromised (neutropenia) mouse model. […] To investigate the T cell-mediated immune response, mouse blood was taken and detected for a change in cytokine IL-17F level in Th17 cells to evaluate the immunogenicity of chitosan oligosaccharide-carrier protein vaccine.
6-8-week-old Balb/c female mice were selected, and adaptively fed for 3-7 d. 20 g/L cyclophosphamide was prepared with normal saline, and the cyclophosphamide was injected intraperitoneally by body weight of 200 mg/kg. The number of neutrophils in the mouse blood was measured by a SYSMEX XT-2000i automatic blood analyzer after 3 days. If the number of the neutrophils was <500/mm^3, the experiment could be continued. After that, the cyclophosphamide was injected every 10 days at a dose of 150 mg/kg, which was maintained throughout the test period.
A normal saline blank control group, a KLH group, a chitosan oligosaccharide group, a chitosan oligosaccharide-KLH group in Example 6, a fluconazole group (as a positive control of a challenge test) were set up, with 10 mice in each group. At weeks 0, 2, 4 and 6 at the start of the experiment, the mice were injected subcutaneously from multiple points on the neck and back, with an injection amount of 2.5 mg/kg. The normal saline blank group was injected with normal saline, and the fluconazole group was not injected. […]

Compound	Survival rate (C. albicans) [%]	Survival number after 7 days (C. albicans)	Change of proportion of intracellular IL-17F compared with blank control group [1]
OC(Cn1cncn1)(Cn1cncn1)c1ccc(F)cc1F [Fluconazole, fluconazole, reference compound]	50	10	
keyhole limpet hemocyanin [KLH]	30	6	increased to a certain extent
